PubChem BioAssay (NCI)
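Test compounds were applied to cells in 96-well plates for 48 hours at 5 doses. Here, GI50 denotes the concentration required for 50% inhibition of growth. TGI: concentration producing complete growth inhibition.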

How the values were obtained:
Assay in all cases: DTP human tumour cell line panel, 48 h; in the data active means GI50 below about 0.43 µM; inactive means the rest
OVCAR-3 ovarian = test system: OVCAR-3 ovarian
HOP-92 NSCLC = test system: HOP-92 NSCLC
HL-60(TB) leukemia = test system: HL-60(TB) leukemia
SK-MEL-5 melanoma = test system: SK-MEL-5 melanoma
OVCAR-8 ovarian = test system: OVCAR-8 ovarian
MOLT-4 leukemia = test system: MOLT-4 leukemia
UACC-257 melanoma = test system: UACC-257 melanoma
DLD-1 colon = test system: DLD-1 colon
RXF 393 renal = test system: RXF 393 renal
A498 renal = test system: A498 renal
OVCAR-5 ovarian = test system: OVCAR-5 ovarian
DMS 114 small cell lung = test system: DMS 114 small cell lung
SR leukemia = test system: SR leukemia
CAKI-1 renal = test system: CAKI-1 renal
MALME-3M melanoma = test system: MALME-3M melanoma
CCRF-CEM leukemia = test system: CCRF-CEM leukemia
HOP-62 NSCLC = test system: HOP-62 NSCLC
TK-10 renal = test system: TK-10 renal
M19-MEL melanoma = test system: M19-MEL melanoma
RPMI-8226 leukemia = test system: RPMI-8226 leukemia
SF-268 CNS = test system: SF-268 CNS
K-562 leukemia = test system: K-562 leukemia
UO-31 renal = test system: UO-31 renal
NCI-H23 lung = test system: NCI-H23 lung
SNB-19 CNS = test system: SNB-19 CNS
SK-MEL-28 melanoma = test system: SK-MEL-28 melanoma
KM20L2 colon = test system: KM20L2 colon
COLO 205 colon = test system: COLO 205 colon
OVCAR-4 ovarian = test system: OVCAR-4 ovarian
U251 CNS = test system: U251 CNS
NCI-H522 lung = test system: NCI-H522 lung
HCC-2998 colon = test system: HCC-2998 colon
DMS 273 small cell lung = test system: DMS 273 small cell lung
SF-539 CNS = test system: SF-539 CNS
SN12C renal = test system: SN12C renal
KM12 colon = test system: KM12 colon
ACHN renal = test system: ACHN renal
HCT-116 colon = test system: HCT-116 colon
HT29 colon = test system: HT29 colon
SK-MEL-2 melanoma = test system: SK-MEL-2 melanoma
NCI-H226 lung = test system: NCI-H226 lung
LXFL 529 NSCLC = test system: LXFL 529 NSCLC
786-0 renal = test system: 786-0 renal
NCI-H460 lung = test system: NCI-H460 lung
A549 NSCLC = test system: A549 NSCLC
M14 melanoma = test system: M14 melanoma
SW-620 colon = test system: SW-620 colon
SF-295 CNS = test system: SF-295 CNS
SNB-78 CNS = test system: SNB-78 CNS
LOX IMVI melanoma = test system: LOX IMVI melanoma
EKVX NSCLC = test system: EKVX NSCLC
SNB-75 CNS = test system: SNB-75 CNS
HS 578T breast = test system: HS 578T breast
SK-OV-3 ovarian = test system: SK-OV-3 ovarian
DU-145 prostate = test system: DU-145 prostate
BT-549 breast = test system: BT-549 breast
HCT-15 colon = test system: HCT-15 colon
MCF7 breast = test system: MCF7 breast
UACC-62 melanoma = test system: UACC-62 melanoma
MDA-MB-231 breast = test system: MDA-MB-231 breast
MDA-N = test system: MDA-N
IGROV1 ovarian = test system: IGROV1 ovarian
T-47D breast = test system: T-47D breast
NCI/ADR-RES ovarian = test system: NCI/ADR-RES ovarian
MDA-MB-435 = test system: MDA-MB-435
PC-3 prostate = test system: PC-3 prostate

C/C(C=O)=C1\C(O)C[C@]1(C)C1CC(C)(C)CC1O (stereo partly drawn)
> 100 µM: TGI (OVCAR-3 ovarian) | TGI (HOP-92 NSCLC) | TGI (HL-60(TB) leukemia) | TGI (SK-MEL-5 melanoma) | TGI (OVCAR-8 ovarian) | TGI (MOLT-4 leukemia) | TGI (UACC-257 melanoma) | TGI (DLD-1 colon) | TGI (RXF 393 renal) | TGI (A498 renal) | TGI (OVCAR-5 ovarian) | TGI (DMS 114 small cell lung) | TGI (SR leukemia) | TGI (CAKI-1 renal) | TGI (MALME-3M melanoma) | TGI (CCRF-CEM leukemia) | TGI (HOP-62 NSCLC) | TGI (TK-10 renal) | TGI (M19-MEL melanoma) | TGI (RPMI-8226 leukemia) | TGI (SF-268 CNS) | TGI (K-562 leukemia) | TGI (UO-31 renal) | TGI (NCI-H23 lung) | TGI (SNB-19 CNS) | TGI (SK-MEL-28 melanoma) | TGI (KM20L2 colon) | TGI (COLO 205 colon) | TGI (U251 CNS) | TGI (NCI-H522 lung) | TGI (HCC-2998 colon) | TGI (DMS 273 small cell lung) | TGI (SF-539 CNS) | TGI (SN12C renal) | TGI (KM12 colon) | TGI (ACHN renal) | TGI (HCT-116 colon) | TGI (HT29 colon) | TGI (SK-MEL-2 melanoma) | TGI (NCI-H226 lung) | TGI (LXFL 529 NSCLC) | TGI (786-0 renal) | TGI (NCI-H460 lung) | TGI (A549 NSCLC) | TGI (M14 melanoma) | TGI (SW-620 colon) | TGI (SF-295 CNS) | TGI (SNB-78 CNS) | TGI (LOX IMVI melanoma) | TGI (EKVX NSCLC)
93.9 µM: TGI (OVCAR-4 ovarian)

CC[C@@]1(O)C(=O)NCc2c1cc1n(c2=O)Cc2cc3cc4c(cc3nc2-1)OCO4
> 87.1 µM: TGI (EKVX NSCLC)
9.02 µM: TGI (RPMI-8226 leukemia)
14.4 µM: TGI (786-0 renal)
11.7 µM: TGI (SN12C renal)
> 73.4 µM: TGI (A549 NSCLC)
1.56 µM: TGI (NCI/ADR-RES ovarian)
37.3 µM: TGI (HT29 colon)
> 88.2 µM: TGI (OVCAR-5 ovarian)
18.2 µM: TGI (LOX IMVI melanoma)
> 82.2 µM: TGI (SK-OV-3 ovarian)
0.502 µM: TGI (HL-60(TB) leukemia)
35.7 µM: TGI (MALME-3M melanoma)
46 µM: TGI (HCT-116 colon)
6.99 µM: TGI (OVCAR-8 ovarian)
> 33.1 µM: TGI (UO-31 renal)
> 30.7 µM: TGI (SF-268 CNS)
27.8 µM: TGI (SK-MEL-5 melanoma)
54.6 µM: TGI (NCI-H522 lung)
> 85.1 µM: TGI (NCI-H226 lung)
0.2 µM: TGI (SR leukemia)
inactive: GI50 (OVCAR-3 ovarian) 14.2 µM | GI50 (HOP-92 NSCLC) 1.22 µM | GI50 (SK-MEL-5 melanoma) 1.23 µM | GI50 (UACC-257 melanoma) 14.1 µM | GI50 (SNB-75 CNS) 0.5 µM | GI50 (RXF 393 renal) 0.803 µM | GI50 (HS 578T breast) 94.1 µM | GI50 (A498 renal) 0.963 µM | GI50 (OVCAR-5 ovarian) 9.39 µM | GI50 (MALME-3M melanoma) 1.47 µM | GI50 (TK-10 renal) 69.9 µM | GI50 (SK-OV-3 ovarian) 1.5 µM | GI50 (BT-549 breast) 4.15 µM | GI50 (HCT-15 colon) 8.58 µM | GI50 (UO-31 renal) 1.48 µM | GI50 (NCI-H23 lung) 0.798 µM | GI50 (SK-MEL-28 melanoma) 45.1 µM | GI50 (COLO 205 colon) 22.7 µM | GI50 (OVCAR-4 ovarian) 22.5 µM | GI50 (MDA-MB-231 breast) > 48.2 µM | GI50 (NCI-H522 lung) 0.517 µM | GI50 (HCC-2998 colon) 0.984 µM | GI50 (MDA-N) 3.23 µM | GI50 (IGROV1 ovarian) 1.59 µM | GI50 (T-47D breast) 0.842 µM | GI50 (KM12 colon) 11.7 µM | GI50 (HCT-116 colon) 0.883 µM | GI50 (HT29 colon) 2.02 µM | GI50 (SK-MEL-2 melanoma) 67.5 µM | GI50 (NCI-H226 lung) 2 µM | GI50 (786-0 renal) 0.672 µM | GI50 (A549 NSCLC) 0.618 µM | GI50 (MDA-MB-435) 2.11 µM | GI50 (M14 melanoma) 0.441 µM | GI50 (PC-3 prostate) 2.38 µM | GI50 (EKVX NSCLC) 12.9 µM
active: GI50 (HL-60(TB) leukemia) 0.0462 µM | GI50 (OVCAR-8 ovarian) 0.391 µM | GI50 (MOLT-4 leukemia) 0.118 µM | GI50 (SR leukemia) < 0.0176 µM | GI50 (CAKI-1 renal) 0.417 µM | GI50 (CCRF-CEM leukemia) < 0.0128 µM | GI50 (HOP-62 NSCLC) 0.235 µM | GI50 (RPMI-8226 leukemia) 0.293 µM | GI50 (SF-268 CNS) 0.236 µM | GI50 (K-562 leukemia) 0.164 µM | GI50 (DU-145 prostate) 0.13 µM | GI50 (SNB-19 CNS) 0.379 µM | GI50 (MCF7 breast) 0.217 µM | GI50 (UACC-62 melanoma) 0.243 µM | GI50 (U251 CNS) 0.408 µM | GI50 (SF-539 CNS) 0.374 µM | GI50 (SN12C renal) 0.328 µM | GI50 (ACHN renal) 0.398 µM | GI50 (NCI/ADR-RES ovarian) 0.236 µM | GI50 (NCI-H460 lung) 0.219 µM | GI50 (SW-620 colon) 0.352 µM | GI50 (SF-295 CNS) 0.148 µM | GI50 (LOX IMVI melanoma) 0.296 µM
> 39.2 µM: TGI (M14 melanoma)
> 26.9 µM: TGI (HOP-92 NSCLC)
25.7 µM: TGI (SF-295 CNS)
0.414 µM: TGI (MOLT-4 leukemia)
12.9 µM: TGI (U251 CNS)
> 26.3 µM: TGI (SW-620 colon)
> 95.5 µM: TGI (OVCAR-3 ovarian)
> 9.04 µM: TGI (CAKI-1 renal)
2.02 µM: TGI (DU-145 prostate)
97.8 µM: TGI (OVCAR-4 ovarian)
3.57 µM: TGI (SNB-75 CNS)
4.57 µM: TGI (SF-539 CNS)
8.73 µM: TGI (A498 renal)
> 27.1 µM: TGI (T-47D breast)
20.4 µM: TGI (HOP-62 NSCLC)
> 89.1 µM: TGI (HCC-2998 colon)
63.4 µM: TGI (IGROV1 ovarian)
> 13.2 µM: TGI (NCI-H23 lung) | TGI (ACHN renal)
29.4 µM: TGI (UACC-62 melanoma)
0.148 µM: TGI (CCRF-CEM leukemia)
> 100 µM: TGI (UACC-257 melanoma) | TGI (RXF 393 renal) | TGI (HS 578T breast) | TGI (TK-10 renal) | TGI (K-562 leukemia) | TGI (BT-549 breast) | TGI (HCT-15 colon) | TGI (SK-MEL-28 melanoma) | TGI (COLO 205 colon) | TGI (MCF7 breast) | TGI (MDA-MB-231 breast) | TGI (MDA-N) | TGI (KM12 colon) | TGI (SK-MEL-2 melanoma) | TGI (MDA-MB-435) | TGI (PC-3 prostate)
> 61.5 µM: TGI (SNB-19 CNS)
16.9 µM: TGI (NCI-H460 lung)

CCOc1ccc(C2c3[nH]c4ccccc4c3CCN2C(=O)c2cccs2)cc1 (stereo not drawn)
32.8 µM: TGI (NCI-H460 lung)
> 100 µM: TGI (OVCAR-3 ovarian) | TGI (HOP-92 NSCLC) | TGI (HL-60(TB) leukemia) | TGI (SK-MEL-5 melanoma) | TGI (OVCAR-8 ovarian) | TGI (MOLT-4 leukemia) | TGI (UACC-257 melanoma) | TGI (SNB-75 CNS) | TGI (RXF 393 renal) | TGI (HS 578T breast) | TGI (A498 renal) | TGI (OVCAR-5 ovarian) | TGI (SR leukemia) | TGI (CAKI-1 renal) | TGI (MALME-3M melanoma) | TGI (CCRF-CEM leukemia) | TGI (HOP-62 NSCLC) | TGI (TK-10 renal) | TGI (RPMI-8226 leukemia) | TGI (SK-OV-3 ovarian) | TGI (SF-268 CNS) | TGI (K-562 leukemia) | TGI (DU-145 prostate) | TGI (BT-549 breast) | TGI (HCT-15 colon) | TGI (UO-31 renal) | TGI (NCI-H23 lung) | TGI (SNB-19 CNS) | TGI (SK-MEL-28 melanoma) | TGI (COLO 205 colon) | TGI (OVCAR-4 ovarian) | TGI (MCF7 breast) | TGI (UACC-62 melanoma) | TGI (U251 CNS) | TGI (MDA-MB-231 breast) | TGI (NCI-H522 lung) | TGI (HCC-2998 colon) | TGI (SF-539 CNS) | TGI (MDA-N) | TGI (IGROV1 ovarian) | TGI (T-47D breast) | TGI (SN12C renal) | TGI (KM12 colon) | TGI (ACHN renal) | TGI (HCT-116 colon) | TGI (HT29 colon) | TGI (SK-MEL-2 melanoma) | TGI (NCI/ADR-RES ovarian) | TGI (786-0 renal) | TGI (A549 NSCLC) | TGI (MDA-MB-435) | TGI (M14 melanoma) | TGI (PC-3 prostate) | TGI (SW-620 colon) | TGI (SF-295 CNS) | TGI (LOX IMVI melanoma) | TGI (EKVX NSCLC)
43.4 µM: TGI (NCI-H226 lung)
